How the values were obtained:
M.TaqI = molecular target: T1, M.TaqI (Thermus aquaticus, UniProt P14385); assay: Modification of adenine-N6 in duplex oligodeoxynucleotide I.II by M.TaqI, nucleoside analysis by HPLC/ESI-MS; type: biochemical; conditions: 37° C. over night, near-stoichiometric enzyme
T1 construct: made in house
From the text: (§1) Transfer of the activated ethyl (CH2CH3), propyl (CH2CH2CH3), prop-2-enyl (CH2CHCH2), prop-2-ynyl group (CH2CCH), but-2-ynyl (CH2CCCH3), pent-2-ynyl (CH2CCCH2CH3) or benzyl group (CH2C6H5) from cofactors 3-9 by the DNA adenine-N6 methyltransferase M.TaqI, the DNA cytosine-C5 methyltransferase M.HhaI variant Q82A or the DNA cytosine-N4 methyltransferase M.BcnIB to DNA was first investigated using short duplex oligodeoxynucleotides as substrates. After enzymatic transfer the duplex oligodeoxynucleotides were enzymatically fragmented and the resulting modified nucleosides were analyzed by reversed-phase HPLC coupled with ESI-MS.
M.TaqI was denatured by heating to 95° C. for 10 min and removed by centrifugation ([…], 2 min). The modified duplex oligodeoxynucleotides I^Z—R-II were desalted by gel filtration (NAP-5 column, Amersham Biosciences, Freiburg, Germany), eluted with water (1 mL) and lyophilized.
The modified duplex oligodeoxynucleotides I^Z—R-II were dissolved in buffer (100 μL, 10 mM Tris hydrochloride, 10 mM magnesium chloride, 1 mM zinc acetate, pH 7.5) containing Nuclease PI (1500 u, Sigma, Taufkirchen, Germany) and calf intestine alkaline phosphatase (30 u, MBI Fermentas, St. Leon-Rot, Germany) and incubated at 37° C. for 4 h. Nucleosides were analyzed by reversed-phase HPLC (Symmetry-C18 5 μm, 100 Å, 250×4.6 mm, equipped with a Symmetry-C18 5 μm, 100 Å, 20×4.6 mm pre-column, Waters, Eschborn, Germany). Compounds were eluted with acetonitrile (5% for 7 min, followed by linear gradients to 6% in 15 min, to 35% in 8 min and to 70% in 2 min) in triethylammonium acetate buffer (10 mM, pH 7.0) at a flow of 1 mL/min and detected at 254 nm.
For HPLC-coupled ESI-MS measurements compounds were eluted with methanol (0% for 3 min, followed by a linear gradient to 100% in 22 min) in ammonium formate buffer (20 mM, pH 3.5). A post-column mobile phase modification (equal co-flow of 96% methanol, 4% formic acid) was used to enhance the detection efficiency of 2′-deoxyadenosine and its derivatives. Mass spectra were recorded in 200-370 m/z range.
The hemimethylated duplex oligodeoxynucleotide I.II (compare Scheme 5, Example 2A) was produced by mixing equal molar amounts of complementary single-stranded oligodeoxynucleotide I (5′-GCCGCTCGATGCCG-3′) (SEQ. ID NO. 1) and II (5′-CGGCATCGA^MeGCGGC-3′, A^Me=N6-methyl-2′-deoxyadenosine) (SEQ ID NO. 2) in water, heating at 85° C. for 5 min and slow cooling to room temperature. […] The solution was heated to 95° C. for 10 min, supplemented with Proteinase K and incubated at 55° C. for 2 h. Hydrolysis products were removed by gel filtration (G-25 column, Amersham Biosciences).
The obtained solution was treated with buffer ( 1/10 volume, 100 mM Tris hydrochlorid, 100 mM magnesium chloride, 10 mM zinc acetate, pH 7.5) containing Nuclease P1 (1.14 u, Sigma, Taufkirchen, Germany) and calf intestine alkaline phosphatase (18 u, MBI Fermentas), incubated at 42° C. for 4 h and passed through a Microcon YM-3 spin column (Amicon). Nucleosides were analyzed by reversed-phase HPLC (Discovery HS C18 75×2.1 mm, 3 μm, equipped with a Supelguard Discovery HS C18 20×2.1 mm, 5 μm, pre-column, Supelco, Germany) coupled with a mass spectrometric detector (HP 1100 series ESI-MS equipped with single quadruple). Compounds were eluted with methanol (0% for 3 min, followed by linear gradients to 20% in 15 min and to 80% in 2 min) in ammonium formate buffer (20 mM, pH 3.5) at a flow of 0.3 mL/min. For on-line mass spectrometric detection post-column mobile phase modification (equal co-flow of 96% methanol, 4% formic acid and 1 mM sodium hydroxide) was used to enhance the detection efficiency of 2′-deoxyadenosine, 2′-deoxycytidine and their derivatives. Mass spectra were recorded in 50-600 m/z range.

M.BcnIB = assay: Modification of cytosine-N4 in duplex oligodeoxynucleotide V.VI by M.BcnIB, nucleoside analysis by HPLC/ESI-MS; type: biochemical; conditions: duplex V.VI 12.5 μM, cofactor 300 μM, enzyme 15 μM, 37° C. over night
From the text: as §1
The duplex oligodeoxynucleotide V.VI was produced by mixing equal molar amounts (2.5 nmol) of complementary single-stranded oligodeoxynucleotide V (5′-[…]-3′) (SEQ ID NO. 3) and VI (5′-[…]-3′) (SEQ ID NO. 4) in water, heating at 85° C. for 5 min and slow cooling to room temperature. […] M.BcnIB was denatured by heating to 80° C. for 10 min and incubated with proteinase K at 55° C. 1 h. Hydrolysis products were removed using gel filtration column (G-25 column, Amersham Biosciences).
The obtained solutions of duplex oligodeoxynucleotides were treated with buffer ( 1/10 volume, 100 mM Tris-HCl, 100 mM magnesium chloride, 10 mM zinc acetate, pH 7.5) containing Nuclease P1 (1500 u, Sigma) and calf intestine alkaline phosphatase (30 u, MBI Fermentas) and incubated at 37° C. for 4 h. Nucleosides were analyzed by reversed-phase HPLC (Discovery C18 150×2.1 mm, 5 μm, equipped with a Supelguard Discovery C18 20×2.1 mm, 5 μm, pre-column, Supelco, Germany) coupled with a mass spectrometric detector (HP 1100 series ESI-MS equipped with single quadruple). Compounds were eluted with methanol (0% for 6 min, followed by linear gradients to 56% in 15 min and to 80% in 1 min) in ammonium formate buffer (20 mM, pH 4.25 for cofactors 3, 4, 6 and pH 3.5 for cofactor 5) at a flow of 0.3 mL/min and detected at 280 nm. For on-line mass spectrometric detection post-column mobile phase modification (equal co-flow of 96% methanol, 4% formic acid and 1 mM sodium hydroxide) was used to enhance the detection efficiency of 2′-deoxycytidine and its derivatives. Mass spectra were recorded in 50-600 m/z range.

T1 sequence (P14385 whole entry): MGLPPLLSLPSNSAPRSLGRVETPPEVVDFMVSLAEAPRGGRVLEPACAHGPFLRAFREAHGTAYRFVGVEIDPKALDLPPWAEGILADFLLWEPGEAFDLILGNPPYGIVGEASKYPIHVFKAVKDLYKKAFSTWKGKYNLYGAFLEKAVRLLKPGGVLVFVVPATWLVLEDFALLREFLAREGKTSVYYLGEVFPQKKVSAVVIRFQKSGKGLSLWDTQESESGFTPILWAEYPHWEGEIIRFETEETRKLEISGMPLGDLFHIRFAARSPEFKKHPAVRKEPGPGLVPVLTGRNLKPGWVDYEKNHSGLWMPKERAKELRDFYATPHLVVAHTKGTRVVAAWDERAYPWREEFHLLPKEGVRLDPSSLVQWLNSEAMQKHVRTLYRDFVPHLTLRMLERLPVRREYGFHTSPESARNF

Row | Structure (SMILES) | cofactor function for M.TaqI (transfer of group Z-R to adenine-N6) (M.TaqI) | cofactor function for M.BcnIB (transfer of group Z-R to cytosine-N4) (M.BcnIB)
1 | CC#CC[S+](CCC(N)C(=O)O)CC1OC(n2cnc3c(N)ncnc32)C(O)C1O (mixture of isomers) [Cofactor 7] | functions as a cofactor | 
2 | CC[S+](CCC(N)C(=O)O)CC1OC(n2cnc3c(N)ncnc32)C(O)C1O (centres unmarked) [Cofactor 3] | functions as a cofactor | functions as a cofactor
3 | CCC[S+](CCC(N)C(=O)O)CC1OC(n2cnc3c(N)ncnc32)C(O)C1O (centres unmarked) [Cofactor 4] | functions as a cofactor | does not function as a cofactor
4 | C=CC[S+](CCC(N)C(=O)O)CC1OC(n2cnc3c(N)ncnc32)C(O)C1O (centres unmarked) [Cofactor 5] | functions as a cofactor | functions as a cofactor
5 | C#CC[S+](CCC(N)C(=O)O)CC1OC(n2cnc3c(N)ncnc32)C(O)C1O (centres unmarked) [Cofactor 6] | functions as a cofactor | does not function as a cofactor
6 | CCC#CC[S+](CCC(N)C(=O)O)CC1OC(n2cnc3c(N)ncnc32)C(O)C1O (centres unmarked) [Cofactor 8] | functions as a cofactor | 
7 | NCCCC(=O)NCC#CC[S+](CCC(N)C(=O)O)CC1OC(n2cnc3c(N)ncnc32)C(O)C1O (centres unmarked) [Cofactor 10] | functions as a cofactor | 
